ChEMBL document CHEMBL1139886, “Synthesis and characterization of constrained peptidomimetic dipeptidyl peptidase IV inhibitors: amino-lactam boroalanines” (J Med Chem, 2007)
pIC50, pKi: −log10 of the molar value.

Legend:
Dipeptidyl peptidase 4 [1] = biological target: T1, Dipeptidyl peptidase 4 (Homo sapiens, UniProt P27487); experiment: Inhibition of human placental DPP4 at pH 2
Dipeptidyl peptidase 4 [2] = biological target: T1, Dipeptidyl peptidase 4; experiment: Inhibition of human placental DPP4 at pH 8
Dipeptidyl peptidase 4 [3] = biological target: T1, Dipeptidyl peptidase 4; experiment: Inhibition of human placental DPP4

T1 sequence (P27487 whole entry): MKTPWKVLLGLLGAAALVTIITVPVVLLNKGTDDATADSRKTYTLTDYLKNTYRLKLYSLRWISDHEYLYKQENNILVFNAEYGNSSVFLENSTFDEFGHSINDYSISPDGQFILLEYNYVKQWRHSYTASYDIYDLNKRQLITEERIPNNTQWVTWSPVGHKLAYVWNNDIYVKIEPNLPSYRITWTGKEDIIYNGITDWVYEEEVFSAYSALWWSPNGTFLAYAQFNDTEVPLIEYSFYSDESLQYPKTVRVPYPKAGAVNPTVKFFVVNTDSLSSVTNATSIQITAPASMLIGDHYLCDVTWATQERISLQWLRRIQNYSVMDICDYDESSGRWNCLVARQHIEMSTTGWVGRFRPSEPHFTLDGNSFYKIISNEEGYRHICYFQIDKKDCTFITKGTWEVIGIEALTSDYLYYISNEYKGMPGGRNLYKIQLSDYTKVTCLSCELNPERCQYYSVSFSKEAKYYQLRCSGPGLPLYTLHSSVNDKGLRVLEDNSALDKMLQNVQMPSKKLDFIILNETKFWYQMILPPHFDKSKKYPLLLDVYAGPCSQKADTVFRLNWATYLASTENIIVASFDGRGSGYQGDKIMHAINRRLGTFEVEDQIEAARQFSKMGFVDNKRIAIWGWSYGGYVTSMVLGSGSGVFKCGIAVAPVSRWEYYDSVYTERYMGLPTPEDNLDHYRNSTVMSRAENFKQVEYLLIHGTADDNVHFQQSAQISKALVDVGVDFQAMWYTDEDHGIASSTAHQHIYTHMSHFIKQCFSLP

Row | SMILES | pIC50 (Dipeptidyl peptidase 4 [1]) | pIC50 (Dipeptidyl peptidase 4 [2]) | pKi (Dipeptidyl peptidase 4 [3])
1 | C[C@@H](B(O)O)N1CC[C@@H](N)C1=O | 8.28 | 8.38 | 8.64
2 | C[C@@H](B(O)O)N1CC[C@H](N)C1=O | 6.32 | 6.34 | 5.96
